Experimental data published in paper PMC8877061, “Antifungal and Antibiofilm Activity of Cyclic Temporin L Peptide Analogues against Albicans and Non-Albicans Candida Species” (Pharmaceutics, 2022).
Like-named read-outs stand apart in the source and are kept apart here. Positions of bridges follow the written chain, without caps; N, C: chain ends. Non-standard residues stand in square brackets, D forms with d. Residues, ends and D or L forms follow the SMILES beside them. Triazole bridges read from a SMILES are 1,4-linked. dLys(N3) = [N-]=[N+]=NCCCC[C@@H](N)C(=O)O; Lys(N3) = [N-]=[N+]=NCCCC[C@H](N)C(=O)O; S5 = C=CCCC[C@](C)(N)C(=O)O; dPra = C#CC[C@@H](N)C(=O)O; Pra = C#CC[C@H](N)C(=O)O

How the values were obtained:
C. albicans ATCC 90028 = format: cell-based
Protocol: C. albicans ATCC 90028, C. auris DSM 21092, C. glabrata DSM 11226, C. tropicalis DSM11951 and C. parapsilosis DSM 4874 grown on YPD Agar (1% w/v yeast extract, 2% w/v peptone, 2% w/v glucose, 1.5% Agar) were cultured in Tryptone soya broth supplemented with 0.1% glucose for 16–18 h at 37 °C, washed twice using sterile phosphate-buffered saline (PBS) and standardized to […] as required for the experiments. RPMI1640 medium (Thermo Fisher Scientific, Waltham, MA, USA) buffered to a pH of 7.0 with 0.165 M MOPS was used for growing the biofilms of all Candida species.
The antifungal activity of peptides against all five Candida species was determined according to CLSI-M27-A3 [33], as reported previously. Briefly, the compounds were tested at concentrations ranging from […] to 50 μM, and the organism suspensions were adjusted to an inoculum of 10^6 cell/mL at OD 590 nm in RPMI 1640, added to the 96-well plate and incubated at 37 °C for 24 h. The minimum inhibitory concentration (MIC) values were determined as the lowest concentration inhibiting fungal growth at 590 nm using a microplate reader (Synergy™ H4; BioTek Instruments, Inc., Winooski, VT, USA). […] The MFC was the lowest concentration that yielded no colony growth on the agar. The MFC/MIC ratio was calculated to determine whether the substance had fungistatic (MFC/MIC ≥ 4) or fungicidal (MFC/MIC < 4) activity.

C. parapsilosis DSM 5784 = format: cell-based
[1] = CLSI-M27-A3, RPMI 1640, 10^6 cell/mL, 37 °C, 24 h, read at 590 nm, tested 6.5 to 50 μM

Row | Structure (SMILES) | MIC, C. albicans ATCC 90028 (C. albicans ATCC 90028; [1]) [µM] | MIC, C. parapsilosis DSM 5784 (C. parapsilosis DSM 5784; [1]) [µM] | MIC, C. albicans ATCC 90028 (C. albicans ATCC 90028; ATCC 90028, 24 h) [µM] | MIC, C. parapsilosis DSM 5784 (C. parapsilosis DSM 5784; DSM 5784, 24 h) [µM]
1 | CC[C@H](C)[C@@H]1NC(=O)[C@H](CCCNC(=N)N)NC(=O)CNC(=O)[C@H](NC(=O)[C@H](Cc2ccccc2)NC(=O)[C@H](CCCCN)NC(=O)[C@H](CO)NC(=O)[C@H](Cc2ccccc2)NC(=O)[C@H](Cc2c[nH]c3ccccc23)NC(=O)[C@@H]2CCCN2C(=O)[C@@H](NC(=O)[C@@H](N)Cc2ccccc2)C(C)C)CCCCNC(=O)CC[C@@H](C(N)=O)NC1=O [compound 1] (H-FVPWFSKF[dK]GRIE-NH2; lactam 9-13; N-terminus assumed) | >50 | >50 | – | –
2 | CC[C@H](C)[C@H](NC(=O)[C@H](CCCNC(=N)N)NC(=O)[C@@H]1CCCCn2cc(nn2)C[C@H](NC(=O)[C@H](Cc2ccccc2)NC(=O)[C@H](Cc2c[nH]c3ccccc23)NC(=O)[C@@H]2CCCN2C(=O)[C@@H](NC(=O)[C@@H](N)Cc2ccccc2)C(C)C)C(=O)N[C@@H](CCCCN)C(=O)N[C@@H](Cc2ccccc2)C(=O)N[C@H](CC(C)C)C(=O)N1)C(=O)N[C@@H](CC(C)C)C(N)=O [compound 8] (H-FVPWF[Pra]KF[dL][Lys(N3)]RIL-NH2; triazole 6-10; N-terminus assumed) | – | – | >50 | >50
3 | CC[C@H](C)[C@H](NC(=O)[C@H](CCCNC(=N)N)NC(=O)CNC(=O)[C@@H](CC(C)C)NC(=O)[C@@H]1CCCCn2cc(nn2)C[C@H](NC(=O)[C@@H]2CCCN2C(=O)[C@@H](NC(=O)[C@@H](N)Cc2ccccc2)C(C)C)C(=O)N[C@@H](Cc2ccccc2)C(=O)N[C@@H](CO)C(=O)N[C@@H](CCCCN)C(=O)N1)C(=O)N[C@@H](CC(C)C)C(N)=O [compound 10] (H-FVP[Pra]FSK[Lys(N3)][dL]GRIL-NH2; triazole 4-8; N-terminus assumed) | – | – | >50 | >50
4 | CC[C@H](C)[C@H](NC(=O)[C@H](CCCNC(=N)N)NC(=O)CNC(=O)[C@H]1CCC(=O)NCCCC[C@H](NC(=O)[C@H](Cc2c[nH]c3ccccc23)NC(=O)[C@@H]2CCCN2C(=O)[C@@H](NC(=O)[C@@H](N)Cc2ccccc2)C(C)C)C(=O)N[C@@H](CO)C(=O)N[C@@H](CCCCN)C(=O)N[C@@H](Cc2ccccc2)C(=O)N1)C(=O)N[C@@H](CC(C)C)C(N)=O [compound 4] (H-FVPWKSKF[dE]GRIL-NH2; lactam 5-9; N-terminus assumed) | – | – | >50 | >50
5 | CC[C@H](C)[C@@H]1NC(=O)[C@H](CCCNC(=N)N)NC(=O)CNC(=O)[C@H](NC(=O)[C@H](Cc2ccccc2)NC(=O)[C@H](CCCCN)NC(=O)[C@H](CO)NC(=O)[C@H](Cc2ccccc2)NC(=O)[C@H](Cc2c[nH]c3ccccc23)NC(=O)[C@@H]2CCCN2C(=O)[C@@H](NC(=O)[C@@H](N)Cc2ccccc2)C(C)C)Cc2cn(nn2)CCCC[C@@H](C(N)=O)NC1=O [compound 6] (H-FVPWFSKF[dPra]GRI[Lys(N3)]-NH2; triazole 9-13; N-terminus assumed) | – | – | >50 | >50
6 | CC(C)C[C@H](NC(=O)[C@@H]1CCC(=O)NCCCC[C@H](NC(=O)[C@H](CCCCN)NC(=O)[C@H](CO)NC(=O)[C@H](Cc2ccccc2)NC(=O)[C@H](Cc2c[nH]c3ccccc23)NC(=O)[C@@H]2CCCN2C(=O)[C@@H](NC(=O)[C@@H](N)Cc2ccccc2)C(C)C)C(=O)N[C@H](CC(C)C)C(=O)NCC(=O)N[C@@H](CCCNC(=N)N)C(=O)N1)C(N)=O [compound 2] (H-FVPWFSKK[dL]GREL-NH2; lactam 8-12; N-terminus assumed) | – | – | >50 | >50
7 | CC(C)C[C@H](NC(=O)[C@@H]1CCCCn2cc(nn2)C[C@H](NC(=O)[C@H](Cc2c[nH]c3ccccc23)NC(=O)[C@@H]2CCCN2C(=O)[C@@H](NC(=O)[C@@H](N)Cc2ccccc2)C(C)C)C(=O)N[C@@H](CO)C(=O)N[C@@H](CCCCN)C(=O)N[C@@H](Cc2ccccc2)C(=O)N[C@H](CC(C)C)C(=O)NCC(=O)N[C@@H](CCCNC(=N)N)C(=O)N1)C(N)=O [compound 14] (H-FVPW[Pra]SKF[dL]GR[Lys(N3)]L-NH2; triazole 5-12; N-terminus assumed) | – | – | >50 | >50
8 | CC[C@H](C)[C@H](NC(=O)[C@H](CCCNC(=N)N)NC(=O)CNC(=O)[C@@H](CC(C)C)NC(=O)[C@@H]1CCC(=O)NCCCC[C@H](NC(=O)[C@@H]2CCCN2C(=O)[C@@H](NC(=O)[C@@H](N)Cc2ccccc2)C(C)C)C(=O)N[C@@H](Cc2ccccc2)C(=O)N[C@@H](CO)C(=O)N[C@@H](CCCCN)C(=O)N1)C(=O)N[C@@H](CC(C)C)C(N)=O [compound 5] (H-FVPKFSKE[dL]GRIL-NH2; lactam 4-8; N-terminus assumed) | – | – | >50 | >50
9 | CC[C@H](C)[C@H](NC(=O)[C@H](CCCNC(=N)N)NC(=O)CNC(=O)[C@H]1CCCCn2cc(nn2)C[C@H](NC(=O)[C@H](Cc2c[nH]c3ccccc23)NC(=O)[C@@H]2CCCN2C(=O)[C@@H](NC(=O)[C@@H](N)Cc2ccccc2)C(C)C)C(=O)N[C@@H](CO)C(=O)N[C@@H](CCCCN)C(=O)N[C@@H](Cc2ccccc2)C(=O)N1)C(=O)N[C@@H](CC(C)C)C(N)=O [compound 9] (H-FVPW[Pra]SKF[dLys(N3)]GRIL-NH2; triazole 5-9; N-terminus assumed) | – | – | >50 | >50
10 | CC(C)C[C@H](NC(=O)[C@@H]1CCC(=O)NCCCC[C@H](NC(=O)[C@H](Cc2c[nH]c3ccccc23)NC(=O)[C@@H]2CCCN2C(=O)[C@@H](NC(=O)[C@@H](N)Cc2ccccc2)C(C)C)C(=O)N[C@@H](CO)C(=O)N[C@@H](CCCCN)C(=O)N[C@@H](Cc2ccccc2)C(=O)N[C@H](CC(C)C)C(=O)NCC(=O)N[C@@H](CCCNC(=N)N)C(=O)N1)C(N)=O [compound 12] (H-FVPWKSKF[dL]GREL-NH2; lactam 5-12; N-terminus assumed) | – | – | >50 | >50
11 | CC[C@H](C)[C@H](NC(=O)[C@H](CCCNC(=N)N)NC(=O)[C@]1(C)CCCC=CCCC[C@](C)(NC(=O)[C@H](Cc2ccccc2)NC(=O)[C@H](Cc2c[nH]c3ccccc23)NC(=O)[C@@H]2CCCN2C(=O)[C@@H](NC(=O)[C@@H](N)Cc2ccccc2)C(C)C)C(=O)N[C@@H](CCCCN)C(=O)N[C@@H](Cc2ccccc2)C(=O)N[C@H](CC(C)C)C(=O)N1)C(=O)N[C@@H](CC(C)C)C(N)=O [compound 17] (H-FVPWF[S5]KF[dL][S5]RIL-NH2; staple 6-10; N-terminus assumed) | – | – | >50 | >50
12 | CC[C@H](C)[C@@H]1NC(=O)[C@H](CCCNC(=N)N)NC(=O)CNC(=O)[C@@H](CC(C)C)NC(=O)[C@H](Cc2ccccc2)NC(=O)[C@H](CCCCN)NC(=O)[C@@H](NC(=O)[C@H](Cc2ccccc2)NC(=O)[C@H](Cc2c[nH]c3ccccc23)NC(=O)[C@@H]2CCCN2C(=O)[C@@H](NC(=O)[C@@H](N)Cc2ccccc2)C(C)C)Cc2cn(nn2)CCCC[C@@H](C(N)=O)NC1=O [compound 13] (H-FVPWF[Pra]KF[dL]GRI[Lys(N3)]-NH2; triazole 6-13; N-terminus assumed) | – | – | >50 | >50
